Test results reported in PMC3913610, “Antitumor Activity and Induction of TP53-Dependent Apoptosis toward Ovarian Clear Cell Adenocarcinoma by the Dual PI3K/mTOR Inhibitor DS-7423” (PLoS ONE, 2014).

Columns and labels:
OVISE cells [1] = assay: Proliferation (MTT/WST-8) assay; format: cell-based; settings: siRNA to TP53, MTT assay
Description: (§1) Assays of the suppression of cell proliferation were performed with the Cell Counting Kit-8 using the tetrazolium salt WST-8 [2-(2-methoxy-4-nitrophenyl)-3-(4-nitrophenyl)-5-(2,4-disulfophenyl)-2H-tetrazolium, monosodium salt] (Dojindo, Tokyo, Japan) for the methyl thiazolyl tetrazolium (MTT) assay. […] Proliferation was quantified by monitoring the changes in the absorbance at 450 nm, which were normalized relative to the absorbance of cell cultures treated with DMSO alone.

nine OCCA cell lines = assay: Proliferation (MTT/WST-8) assay, OCCA panel; format: cell-based; settings: 156 nM, 72 h
Description: as §1

[2] = target: Mixed Lineage Kinase 1 (MLK1) (Homo sapiens, UniProt P80192); assay: Kinase selectivity panel, MLK1; format: biochemical; settings: MLK1, relevant activity observed
mTOR = mTOR (Homo sapiens, UniProt P42345); assay: mTOR inhibition; format: biochemical
[3] = test system: phosphorylation of AKT, S6, FOXO1/3a in OCCA cells; assay: Immunoblotting of PI3K/mTOR signaling in OCCA cells; format: cell-based; settings: these doses and higher; OCCA cells
Description: Signals were detected using BioRAD western blotting systems (BioRAD, Hercules, CA) with the detection reagents ECL advance and ECL select (GE Healthcare, Piscataway, NJ).

OCCA cell lines = assay: Apoptosis by annexin-V FITC/PI staining, OCCA panel; format: cell-based
Description: (§2) Cells (5×10^5) were cultured in 60-mm plates for 24 h before treatment with either DMSO (control), and 156 nM DS-7423, or 2,500 nM DS-7423 for 48 h. Cells were trypsinized, washed twice with PBS, and then analyzed after double staining with annexin-V fluorescein isothiocyanate (FITC) (Abcam, Cambridge, MA) and PI. The apoptotic cell population was analyzed using flow cytometry. All experiments were performed three times.

OCCA cells = assay: Cell cycle analysis (flow cytometry), OCCA panel; format: cell-based; settings: 48 h
Description: Cells (5×10^5) were seeded in 60-mm dishes and treated with DS-7423 for 48 h. Floating and adherent cells were collected by trypsinization and washed twice with phosphate buffer saline (PBS). Cells were resuspended in cold 70% ethanol and maintained at 4°C overnight. After being washed twice with PBS, cells were incubated in RNase A (0.25 mg/mL) (Sigma) for 30 min at 37°C, followed by staining with propidium iodide (PI; 50 μg/mL) (Sigma) at 4°C for 30 min in the dark. Cells were then analyzed using flow cytometry (BD FACS Calibur HG, Franklin Lakes, NJ). Cell cycle distribution was analyzed using CELL Quest pro ver. 3.1. […]. All experiments were repeated three times.

[4] = test system: TP53-regulated genes in OVMANA and OVISE cells; assay: Semi-quantitative RT-PCR of TP53 target genes; format: cell-based
Description: Total RNAs of these cells were extracted with the RNeasy Mini Kit according to the manufacturer's instructions (QIAGEN, Valencia, CA). cDNAs were synthesized from total RNAs by using the Super Script III First-strand Synthesis SuperMix (Invitrogen, Carlsbad, CA). The exponential phase of the RT-PCR occurred between 15–30 cycles, and these cycles were monitored to allow semi-quantitative comparisons among the cDNAs developed from identical reactions. The primers and conditions for the amplification of p53AIP1, p21, and GAPDH sequences were described previously. The PCR primers for PUMA were 5′-[…]-3′ (forward) and 5′-[…] CTC-3′ (reverse). The primers for p53R2, TIGAR, GLS2, GADD45, 14-3-3 sigma and PAI-1 were described previously [30]–[35]. Each PCR regimen involved a 2-min initial denaturation step (94°C), which was followed by 15–30 cycles at 94°C for 30 s, then at 55°C for 30 s, and finally, at 72°C for 30 s using a Thermal Cycler Gene Atlas instrument (ASTEC, Fukuoka, Japan).

PI3Kβ = PI3Kβ (Homo sapiens, UniProt P42338); assay: PI3Kβ inhibition; format: biochemical
OVISE cells [5] = assay: Apoptosis by annexin-V FITC/PI staining; format: cell-based
Description: as §2
Cells were plated at approximately 30% confluence in 100-mm plates and incubated for 24 h before transfection with small interfering RNA (siRNA) duplexes at the concentrations indicated, using Lipofectamine […] RNAiMAX (Invitrogen, Carlsbad, CA) and Opti-MEM medium (Life Technologies, Grand Island, NY). The siRNAs specific for TP53 were purchased from Invitrogen. A negative control kit was used as a control (Invitrogen, Carlsbad, CA).

[6] = test system: p-MDM2, p-TP53 in OVMANA cells; assay: Immunoblotting of p-MDM2 and p-TP53; format: cell-based
Description: (§3) Antibodies to total Akt, phosphorylation of Akt (p-Akt) (Ser473, Thr308), p-GSK3beta (Ser9), total S6, p-S6 (Ser235/236, Ser 240/244), p-4EBP1 (Thr37/46), p-FOXO1 (Thr24), p-FOXO3a (Thr32), p-MDM2 (Ser 166), p-TP53 (Ser15), cleaved-PARP, and PARP (Cell Signaling Technology, Beverly, MA), beta-actin (Sigma-Aldrich, St. Louis, MO), TP53 (Santa Cruz, CA, USA) and p-TP53 (Ser46) (Calbiochem, Billerica, MA) were used for immunoblotting, as recommended by the manufacturers. Signals were detected using BioRAD western blotting systems (BioRAD, Hercules, CA) with the detection reagents ECL advance and ECL select (GE Healthcare, Piscataway, NJ).

PI3Kδ = PI3Kδ (Homo sapiens, UniProt O00329); assay: PI3Kδ inhibition; format: biochemical
[7] = test system: cleavage of PARP in OVMANA cells; assay: Cleaved PARP immunoblotting; format: cell-based
Description: as §3

[8] = target: Never-In-Mitosis Gene A (NIMA)-related kinase 2 (NEK2) (Homo sapiens, UniProt P51955); assay: Kinase selectivity panel, NEK2; format: biochemical; settings: NEK2, relevant activity observed
seven OSA lines = assay: Proliferation (MTT/WST-8) assay, OSA panel; format: cell-based; settings: four of seven OSA cell lines
Description: as §1

Chain of PI3Kβ (P42338 whole entry): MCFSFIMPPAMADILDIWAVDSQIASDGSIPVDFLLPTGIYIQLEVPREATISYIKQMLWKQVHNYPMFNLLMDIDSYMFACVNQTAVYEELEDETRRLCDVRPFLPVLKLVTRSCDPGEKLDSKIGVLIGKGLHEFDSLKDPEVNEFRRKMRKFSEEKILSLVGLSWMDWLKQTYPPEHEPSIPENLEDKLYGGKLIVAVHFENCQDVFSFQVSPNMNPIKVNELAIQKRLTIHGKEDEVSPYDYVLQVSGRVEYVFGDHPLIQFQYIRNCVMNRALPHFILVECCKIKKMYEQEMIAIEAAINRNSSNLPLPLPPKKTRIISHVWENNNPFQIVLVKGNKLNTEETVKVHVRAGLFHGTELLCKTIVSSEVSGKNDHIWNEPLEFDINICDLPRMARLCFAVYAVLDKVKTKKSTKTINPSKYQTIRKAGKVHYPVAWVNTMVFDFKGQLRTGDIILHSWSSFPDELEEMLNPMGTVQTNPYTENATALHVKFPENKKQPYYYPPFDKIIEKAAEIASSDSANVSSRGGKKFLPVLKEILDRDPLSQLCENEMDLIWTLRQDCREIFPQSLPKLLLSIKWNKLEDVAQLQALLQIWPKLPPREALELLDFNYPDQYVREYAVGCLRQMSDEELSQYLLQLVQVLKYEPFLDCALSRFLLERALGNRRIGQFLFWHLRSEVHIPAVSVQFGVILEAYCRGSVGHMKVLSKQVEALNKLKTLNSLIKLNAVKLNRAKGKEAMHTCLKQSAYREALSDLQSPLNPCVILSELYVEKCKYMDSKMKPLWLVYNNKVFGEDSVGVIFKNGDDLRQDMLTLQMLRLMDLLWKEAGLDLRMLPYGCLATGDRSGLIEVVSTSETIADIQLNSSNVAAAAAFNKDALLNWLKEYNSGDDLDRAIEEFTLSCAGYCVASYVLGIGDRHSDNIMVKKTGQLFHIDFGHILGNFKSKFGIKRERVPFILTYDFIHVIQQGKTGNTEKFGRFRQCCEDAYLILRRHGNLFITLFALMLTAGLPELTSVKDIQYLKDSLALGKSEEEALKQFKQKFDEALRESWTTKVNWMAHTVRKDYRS
Chain of PI3Kβ (P27986 whole entry partner): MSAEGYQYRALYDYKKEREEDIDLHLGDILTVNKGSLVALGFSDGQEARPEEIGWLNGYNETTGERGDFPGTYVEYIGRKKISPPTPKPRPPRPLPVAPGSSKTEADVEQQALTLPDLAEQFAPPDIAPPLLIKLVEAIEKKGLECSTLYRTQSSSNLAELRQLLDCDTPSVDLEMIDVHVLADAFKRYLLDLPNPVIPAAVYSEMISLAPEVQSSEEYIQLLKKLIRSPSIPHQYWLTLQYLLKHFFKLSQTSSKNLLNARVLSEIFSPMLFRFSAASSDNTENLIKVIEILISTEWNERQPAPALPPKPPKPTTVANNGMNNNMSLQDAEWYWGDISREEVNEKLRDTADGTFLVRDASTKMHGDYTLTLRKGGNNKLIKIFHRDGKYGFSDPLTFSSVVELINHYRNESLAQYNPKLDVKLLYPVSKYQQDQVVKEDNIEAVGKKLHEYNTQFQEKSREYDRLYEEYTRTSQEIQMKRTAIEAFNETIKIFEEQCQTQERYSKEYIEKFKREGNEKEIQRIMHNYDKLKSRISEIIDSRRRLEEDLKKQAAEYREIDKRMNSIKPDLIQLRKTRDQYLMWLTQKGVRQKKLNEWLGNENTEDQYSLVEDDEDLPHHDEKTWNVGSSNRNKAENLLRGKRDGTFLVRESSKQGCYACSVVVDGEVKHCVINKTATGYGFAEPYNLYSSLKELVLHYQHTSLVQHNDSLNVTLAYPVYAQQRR
Chain of Mixed Lineage Kinase 1 (MLK1) (P80192 whole entry, species assumed): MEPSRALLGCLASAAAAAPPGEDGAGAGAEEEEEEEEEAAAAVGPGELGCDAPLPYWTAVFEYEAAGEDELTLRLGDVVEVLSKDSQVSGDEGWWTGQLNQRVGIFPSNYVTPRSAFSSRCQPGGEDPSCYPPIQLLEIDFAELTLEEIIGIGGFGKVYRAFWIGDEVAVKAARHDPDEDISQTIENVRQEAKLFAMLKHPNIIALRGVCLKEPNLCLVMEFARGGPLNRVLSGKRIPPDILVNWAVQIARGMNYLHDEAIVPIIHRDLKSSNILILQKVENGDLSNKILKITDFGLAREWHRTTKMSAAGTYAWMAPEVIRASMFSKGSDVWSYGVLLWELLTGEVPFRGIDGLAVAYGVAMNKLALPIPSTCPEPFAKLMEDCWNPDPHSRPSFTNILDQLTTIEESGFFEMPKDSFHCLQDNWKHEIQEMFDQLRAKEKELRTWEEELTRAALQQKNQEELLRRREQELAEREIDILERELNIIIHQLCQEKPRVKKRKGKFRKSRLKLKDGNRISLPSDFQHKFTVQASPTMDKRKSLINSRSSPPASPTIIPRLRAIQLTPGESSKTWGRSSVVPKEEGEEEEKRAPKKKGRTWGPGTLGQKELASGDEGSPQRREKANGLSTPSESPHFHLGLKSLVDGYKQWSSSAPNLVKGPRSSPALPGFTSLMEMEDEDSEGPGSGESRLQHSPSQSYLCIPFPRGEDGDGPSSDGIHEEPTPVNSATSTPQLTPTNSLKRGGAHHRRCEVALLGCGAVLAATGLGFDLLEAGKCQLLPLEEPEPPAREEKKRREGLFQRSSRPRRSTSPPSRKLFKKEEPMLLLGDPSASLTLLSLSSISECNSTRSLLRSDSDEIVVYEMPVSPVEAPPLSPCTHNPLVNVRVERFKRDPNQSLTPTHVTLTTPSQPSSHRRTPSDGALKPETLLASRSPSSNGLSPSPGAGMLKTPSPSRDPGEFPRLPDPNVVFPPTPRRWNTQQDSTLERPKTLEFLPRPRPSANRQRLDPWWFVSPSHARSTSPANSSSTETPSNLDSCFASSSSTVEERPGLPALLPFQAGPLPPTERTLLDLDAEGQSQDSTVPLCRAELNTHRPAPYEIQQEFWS
Chain of Never-In-Mitosis Gene A (NIMA)-related kinase 2 (NEK2) (P51955 whole entry, species assumed): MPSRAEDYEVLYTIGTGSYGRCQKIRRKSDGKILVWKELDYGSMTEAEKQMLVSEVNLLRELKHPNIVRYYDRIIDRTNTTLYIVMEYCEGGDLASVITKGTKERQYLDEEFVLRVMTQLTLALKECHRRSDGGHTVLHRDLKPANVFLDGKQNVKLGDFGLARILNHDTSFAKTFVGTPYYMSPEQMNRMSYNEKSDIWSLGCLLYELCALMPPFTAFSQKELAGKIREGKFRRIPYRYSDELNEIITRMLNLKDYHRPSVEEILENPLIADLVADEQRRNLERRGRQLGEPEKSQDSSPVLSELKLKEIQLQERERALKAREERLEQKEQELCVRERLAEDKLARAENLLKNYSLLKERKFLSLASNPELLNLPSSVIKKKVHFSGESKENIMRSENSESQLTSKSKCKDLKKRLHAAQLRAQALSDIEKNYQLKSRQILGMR
Chain of PI3Kδ (O00329 whole entry): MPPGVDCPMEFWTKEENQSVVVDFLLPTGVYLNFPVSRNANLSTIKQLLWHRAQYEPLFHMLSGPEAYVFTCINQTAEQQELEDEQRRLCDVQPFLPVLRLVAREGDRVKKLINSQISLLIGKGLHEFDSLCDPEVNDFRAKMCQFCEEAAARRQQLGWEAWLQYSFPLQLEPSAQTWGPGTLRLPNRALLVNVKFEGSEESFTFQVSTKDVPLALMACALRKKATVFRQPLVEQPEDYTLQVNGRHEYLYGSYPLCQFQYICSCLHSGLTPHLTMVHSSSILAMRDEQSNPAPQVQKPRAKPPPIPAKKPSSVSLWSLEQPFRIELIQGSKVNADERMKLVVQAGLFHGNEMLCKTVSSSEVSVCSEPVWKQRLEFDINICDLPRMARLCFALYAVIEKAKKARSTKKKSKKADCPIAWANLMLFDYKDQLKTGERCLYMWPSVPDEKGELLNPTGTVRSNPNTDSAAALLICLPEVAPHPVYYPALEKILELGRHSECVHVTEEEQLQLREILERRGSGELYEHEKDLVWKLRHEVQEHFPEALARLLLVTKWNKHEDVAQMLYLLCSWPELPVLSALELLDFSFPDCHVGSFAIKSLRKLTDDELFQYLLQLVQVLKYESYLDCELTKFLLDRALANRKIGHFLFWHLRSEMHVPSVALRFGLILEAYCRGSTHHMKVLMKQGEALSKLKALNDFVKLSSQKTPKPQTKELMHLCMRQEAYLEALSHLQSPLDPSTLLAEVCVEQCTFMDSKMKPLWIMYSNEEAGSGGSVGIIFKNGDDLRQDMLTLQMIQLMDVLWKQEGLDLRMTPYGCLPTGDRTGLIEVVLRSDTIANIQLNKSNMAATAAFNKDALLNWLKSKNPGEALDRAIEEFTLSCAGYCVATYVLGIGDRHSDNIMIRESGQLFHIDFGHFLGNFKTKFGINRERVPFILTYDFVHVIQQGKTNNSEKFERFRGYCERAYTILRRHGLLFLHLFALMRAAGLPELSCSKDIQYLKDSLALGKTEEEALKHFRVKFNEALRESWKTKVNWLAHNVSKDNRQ
Chain of PI3Kδ (P27986 whole entry partner): as the sequence (P27986 whole entry partner) above

CC(=O)N1CCN(c2nc3c(N4CCOCC4)nc(-c4cnc(N)nc4)nc3n2CC(F)(F)F)C[C@H]1C [DS-7423]
anti-proliferative effect when combined with knockdown of TP53 (OVISE cells [1]): significantly reduced
inhibition of cell growth (nine OCCA cell lines): 70%–97%
IC50 [2]: < 0.2 µM
IC50 (mTOR): 0.0349 µM
doses suppressing phosphorylation of AKT (Thr308 and Ser473) and S6 (Ser235/236 and Ser240/244) [3]: 39 to 156 nM
apoptosis (annexin-V FITC/PI) (OCCA cell lines; 156 nM, 48 h, five of the six cell lines that lacked mutations in TP53): 4–12%
apoptosis (annexin-V FITC/PI) (OCCA cell lines; 2,500 nM, 48 h, five cell lines without TP53 mutations): 10–16%
ratio of apoptotic cells (OCCA cell lines; even at high concentrations): less than 20%
apoptosis (annexin-V FITC/PI) (OCCA cell lines; three cell lines with TP53 mutations, any of the doses tested): ≤ 5%
size of the S-phase population (OCCA cells; OCCA cells, change weak in ES-2): decreased
sizes of sub-G1 populations (OCCA cells; six of the nine cell lines): increased in a dose-dependent manner
expression of p21 ([4]; 39, 156, and 2,500 nM, 24 h): did not induce
expression of GADD45 ([4]; OVISE cells): significantly induced
doses inducing expression of p53AIP1 and PUMA ([4]; OVMANA and OVISE cells, 24 h): ≥ 39 nM
expression of TIGAR ([4]; OVMANA cells): decreased
IC50 (PI3Kβ): 1.14 µM
percentage of apoptotic cells compared with rapamycin (OVISE cells [5]; OVISE cells): significantly higher
apoptotic cell death after knockdown of TP53 (OVISE cells [5]; OVISE, TP53 siRNA, 156 or 2,500 nM, 48 h): rescued
doses clearly inducing p-TP53 (Ser46), not p-TP53 (Ser15) ([6]; OVMANA cells): 156–2,500 nM
level of p-MDM2 ([6]; dose-dependent): reduced
IC50 (PI3Kδ): 0.262 µM
concentration at which induction of cleaved-PARP was observed ([7]; 4 h, dose-dependent up to 2,500 nM): 39 nM
time to cleavage of PARP ([7]; OVMANA cells without mutations in TP53, 156 nM): ≤ 2 h
IC50 [8]: < 0.2 µM
IC50 (seven OSA lines): > 0.1 µM
